Test results as given in patent US20260216198A1, “GPR35 MODULATORS” (ThirtyFiveBio Limited, priority 2023, published 2026).
pIC50: −log10 of the molar value.

What follows are compounds tested against T1, GPR35 (Homo sapiens, UniProt Q9HC97) (assay: cellular GPR35 phospho-ERK HTRF assay (inhibition of lodoxamide-induced phospho-ERK signal)). Settings: GPR35-CHO-K1-mt aequorin-Gα16 cell line; agonist lodoxamide at EC80; read-out: Activity Group (IC50, inhibition of GPR35 agonist-induced phospho-ERK signal).
T1 construct: expressed in transfected cells; host or cells: CHO-K1 cells co-expressing mitochondrial aequorin and Gα16
Assay type: cell-based
From the text: (§1) The functional GPR35 assay as described in the accompanying examples measures the ability of GPR35 modulators to inhibit a GPR35 agonist-induced phospho-ERK signal. This is expressed as the concentration of modulator required to reduce the phospho-ERK signal by 50 percent, i.e. the IC50; the signal window being defined as the difference between agonist plus modulator vehicle (no modulator) and agonist vehicle (no agonist) controls.
as §1, with “functional” for “functional GPR35”, “assay” for “assay as”, “described” for “described in the accompanying examples”
This assay is a cellular GPR35 phospho-ERK homogeneous time resolved fluorescence (HTRF) assay using the GPR35-CHO-K1-mt aequorin-Gα16 cell line. Upon activation of GPR35 with the agonist lodoxamide at EC80 concentration, ERK 1/2 is phosphorylated, and after lysis of the cell membrane, phospho-ERK1/2 (Thr202/Tyr204) is detected in a sandwich assay using two different specific antibodies, one labelled with Eu^3+-cryptate (donor) and the second with d2 (acceptor). When the dyes are in proximity, the excitation of the donor with a light source (laser or flash lamp) triggers a Fluorescence Resonance Energy Transfer (FRET) towards the acceptor, resulting in specific acceptor fluorescence (at 665 nm). The specific signal is directly proportional to the amount of phospho-ERK1/2 (Thr202/Tyr204) in the sample. Compounds that interfere with the levels of phospho-ERK1/2 (Thr202/Tyr204) will result in a low HTRF signal.

T1 sequence (Q9HC97 whole entry): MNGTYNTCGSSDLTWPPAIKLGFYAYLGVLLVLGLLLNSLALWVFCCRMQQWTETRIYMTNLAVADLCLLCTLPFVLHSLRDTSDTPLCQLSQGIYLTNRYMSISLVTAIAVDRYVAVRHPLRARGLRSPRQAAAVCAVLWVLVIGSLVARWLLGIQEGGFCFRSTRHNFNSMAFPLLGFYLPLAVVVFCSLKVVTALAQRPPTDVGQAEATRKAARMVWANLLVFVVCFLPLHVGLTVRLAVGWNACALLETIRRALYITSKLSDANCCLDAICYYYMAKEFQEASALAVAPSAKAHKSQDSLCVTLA

Row | SMILES | pIC50
1 | O=C(O)c1cnc(O)c(-c2cccc(C(=O)Nc3ccc(OCCc4ccccc4)cc3)c2)c1 [Example 66, 6-Hydroxy-5-[3-[[4-(2-phenylethoxy)phenyl]carbamoyl]phenyl]pyridine-3-carboxylic acid] | 5.00 to 6.00
2 | O=C(O)c1cnnc(-c2cccc(C(=O)Nc3ccc(COCc4ccccc4)cc3)c2)c1 [Example 67, 6-[3-[[4-(Benzyloxymethyl)phenyl]carbamoyl]phenyl]pyridazine-4-carboxylic acid] | > 6.00
3 | Cc1ncc(-c2cccc(C(=O)Nc3ccc(COCc4ccccc4)cc3)c2)nc1C(=O)O [Example 68, 6-[3-[[4-(Benzyloxymethyl)phenyl]carbamoyl]phenyl]-3-methyl-pyrazine-2-carboxylic acid] | > 6.00
4 | Cc1ncc(-c2ccnc(C(=O)Nc3ccc(OCCc4ccccc4)cc3)c2)cc1C(=O)O [Example 70, 2-Methyl-5-[2-[[4-(2-phenylethoxy)phenyl]carbamoyl]-4-pyridyl]pyridine-3-carboxylic acid] | > 6.00
5 | Cc1ncc(-c2cc(C(=O)Nc3ccc(OCCc4ccccc4)cc3)cnn2)cc1C(=O)O [Example 71, 2-Methyl-5-[5-[[4-(2-phenylethoxy)phenyl]carbamoyl]pyridazin-3-yl]pyridine-3-carboxylic acid] | 5.00 to 6.00
6 | Cc1ncc(-c2cc(C(=O)Nc3ccc(COCc4ccccc4)cc3)ccn2)cc1C(=O)O [Example 74, 5-[4-[[4-(Benzyloxymethyl)phenyl]carbamoyl]-2-pyridyl]-2-methyl-pyridine-3-carboxylic acid] | > 6.00
7 | Cc1cc(C(=O)Nc2ccc(COCc3ccccc3)cc2)cc(-c2cnc(C)c(C(=O)O)c2)n1 [Example 75, 5-[4-[[4-(Benzyloxymethyl)phenyl]carbamoyl]-6-methyl-2-pyridyl]-2-methyl-pyridine-3-carboxylic acid] | > 6.00
8 | Cc1ncc(-c2cc(C(=O)Nc3ccc(COCc4ccccc4)c(F)c3)ccn2)cc1C(=O)O [Example 77, 5-[4-[[4-(Benzyloxymethyl)-3-fluoro-phenyl]carbamoyl]-2-pyridyl]-2-methyl-pyridine-3-carboxylic acid] | > 6.00
9 | COc1ccc(-c2cnc(C)c(C(=O)O)c2)cc1C(=O)Nc1ccc(COCc2ccccc2)cc1 [Example 80, 5-[3-[[4-(Benzyloxymethyl)phenyl]carbamoyl]-4-methoxy-phenyl]-2-methyl-pyridine-3-carboxylic acid] | > 6.00
10 | COc1ccc(C(=O)Nc2ccc(COCc3ccccc3)cc2)cc1-c1cnc(C)c(C(=O)O)c1 [Example 81, 5-[5-[[4-(Benzyloxymethyl)phenyl]carbamoyl]-2-methoxy-phenyl]-2-methyl-pyridine-3-carboxylic acid] | > 6.00
11 | Cc1ccc(-c2cnc(C)c(C(=O)O)c2)cc1C(=O)Nc1ccc(COCc2ccccc2)cc1 [Example 82, 5-[3-[[4-(Benzyloxymethyl)phenyl]carbamoyl]-4-methyl-phenyl]-2-methyl-pyridine-3-carboxylic acid] | 5.00 to 6.00
12 | Cc1ccc(C(=O)Nc2ccc(COCc3ccccc3)cc2)cc1-c1cnc(C)c(C(=O)O)c1 [Example 83, 5-[5-[[4-(Benzyloxymethyl)phenyl]carbamoyl]-2-methyl-phenyl]-2-methyl-pyridine-3-carboxylic acid] | > 6.00
13 | Cc1ncc(-c2cc(C(=O)Nc3ccc(COCc4ccccc4)cc3)ccc2F)cc1C(=O)O [Example 85, 5-[5-[[4-(Benzyloxymethyl)phenyl]carbamoyl]-2-fluoro-phenyl]-2-methyl-pyridine-3-carboxylic acid] | > 6.00
14 | Cc1ncc(-c2cccc(C(=O)Nc3ccc(COCc4ccccc4)cc3)c2F)cc1C(=O)O [Example 86, 5-[3-[[4-(Benzyloxymethyl)phenyl]carbamoyl]-2-fluoro-phenyl]-2-methyl-pyridine-3-carboxylic acid] | 5.00 to 6.00
15 | Cc1ncc(-c2ccc(F)c(C(=O)Nc3ccc(COCc4ccccc4)cc3)c2F)cc1C(=O)O [Example 87, 5-[3-[[4-(Benzyloxymethyl)phenyl]carbamoyl]-2,4-difluoro-phenyl]-2-methyl-pyridine-3-carboxylic acid] | 5.00 to 6.00
16 | Cc1ncc(-c2ccc(F)c(C(=O)Nc3ccc(COCc4ccccc4)c(F)c3)c2)cc1C(=O)O [Example 90, 5-[3-[[4-(Benzyloxymethyl)-3-fluoro-phenyl]carbamoyl]-4-fluoro-phenyl]-2-methyl-pyridine-3-carboxylic acid] | > 6.00

More lines, now with the values ahead:

Row | pIC50 | SMILES
17 | > 6.00 | Cc1ncc(-c2cc(C(=O)Nc3ccc(OCCc4ccccc4)cc3)ncn2)cc1C(=O)O [Example 69, 2-Methyl-5-[6-[[4-(2-phenylethoxy)phenyl]carbamoyl]pyrimidin-4-yl]pyridine-3-carboxylic acid]
18 | 5.00 to 6.00 | Cc1ncc(-c2cc(C(=O)Nc3ccc(OCC4CC4)cc3)ccn2)cc1C(=O)O [Example 72, 5-[4-[[4-(Cyclopropylmethoxy)phenyl]carbamoyl]-2-pyridyl]-2-methyl-pyridine-3-carboxylic acid]
19 | 5.00 to 6.00 | Cc1ncc(-c2cc(C(=O)Nc3ccc(OCC4CC4)cc3)c(F)cn2)cc1C(=O)O [Example 73, 5-[4-[[4-(Cyclopropylmethoxy)phenyl]carbamoyl]-5-fluoro-2-pyridyl]-2-methyl-pyridine-3-carboxylic acid]
20 | > 6.00 | Cc1ncc(-c2cc(C(=O)Nc3ccc(COCc4ccccc4)cc3)c(F)cn2)cc1C(=O)O [Example 76, 5-[4-[[4-(Benzyloxymethyl)phenyl]carbamoyl]-5-fluoro-2-pyridyl]-2-methyl-pyridine-3-carboxylic acid]
21 | 5.00 to 6.00 | Cc1ncc(-c2cc(C(=O)Nc3ccc(COC4CC4)c(F)c3)ccn2)cc1C(=O)O [Example 78, 5-[4-[[4-(Cyclopropoxymethyl)-3-fluoro-phenyl]carbamoyl]-2-pyridyl]-2-methyl-pyridine-3-carboxylic acid]
22 | 5.00 to 6.00 | Cc1ncc(-c2cc(C(=O)Nc3ccc(OCC4CC4)c(F)c3)ccn2)cc1C(=O)O [Example 79, 5-[4-[[4-(Cyclopropylmethoxy)-3-fluoro-phenyl]carbamoyl]-2-pyridyl]-2-methyl-pyridine-3-carboxylic acid]
23 | 5.00 to 6.00 | Cc1ncc(-c2ccc(F)c(C(=O)Nc3ccc(OCC4CC4)cc3)c2)cc1C(=O)O [Example 84, 5-[3-[[4-(Cyclopropylmethoxy)phenyl]carbamoyl]-4-fluoro-phenyl]-2-methyl-pyridine-3-carboxylic acid]
24 | > 6.00 | Cc1ncc(-c2ccc(F)c(C(=O)Nc3ccc(COCC4CC4)c(F)c3)c2)cc1C(=O)O [Example 88, 5-[3-[[4-(Cyclopropylmethoxymethyl)-3-fluoro-phenyl]carbamoyl]-4-fluoro-phenyl]-2-methyl-pyridine-3-carboxylic acid]
25 | > 6.00 | Cc1ncc(-c2ccc(F)c(C(=O)Nc3ccc(OCC4CC4)c(F)c3)c2)cc1C(=O)O [Example 89, 5-[3-[[4-(Cyclopropylmethoxy)-3-fluoro-phenyl]carbamoyl]-4-fluoro-phenyl]-2-methyl-pyridine-3-carboxylic acid]
26 | 5.00 to 6.00 | Cc1ncc(-c2ccc(F)c(C(=O)Nc3ccc(COC4CC4)c(F)c3)c2)cc1C(=O)O [Example 91, 5-[3-[[4-(Cyclopropoxymethyl)-3-fluoro-phenyl]carbamoyl]-4-fluoro-phenyl]-2-methyl-pyridine-3-carboxylic acid]
